Source: US9439979B2, “Epidermal growth factor receptor (EGFR) and methods of use in adenoviral-associated virus type 6 (AAV6) transduction” (priority 2010, dated 2016)

Columns and labels:
HEK293T cells = assay type: cell-based, human; conditions: inhibitor 10 μm; for effect on AAV2 transduction of HEK293T cells: same conditions
Protocol: (§1) AAV transduction and pharmacological inhibition. The 32D and 32D-EGFR cells were transduced with 1.0E4 genomic particle (gp)/cell with each of the AAV serotypes tested. Cells were analyzed for GFP expression by FACS analysis at 96 hours posttransduction. The HEK293T, HN12 and HEp-2 cells, shown to be permissive to AAV2 and/or AAV6, were used to evaluate the specific role of EGFR in AAV-mediated transduction. Cells were incubated at 37° C. in the presence or absence of AG1478 (10 μm) or gefitnib (10 μm) for 30 minutes prior to addition of AAV. AAV2 and AAV6 containing the CMV-NLS-eGFP construct were added at a concentration of 1.0×10^4 gp/ml for 90 minutes.

HEp-2 cells = assay: AAV transduction and pharmacological inhibition in HEp-2 cells; assay type: cell-based
Protocol: (§2) In vitro transduction of HEp-2 and HN12 cells with AAV2 and AAV6 in the presence or absence of the EGFR inhibitor, AG1478, was studied. […] Transduction of HN12 cells in the presence of AG1478 was reduced by 77% (***p<0.0005, n=3).
as §1
(§3) Increased expression of EGFR correlates with aggressive head and neck squamous cell carcinoma (HNSCC) tumor growth and resistance to treatment (Thariat, J., et al., Int. J. Clin. Oncol., 12: 99-110 (2007)). The utility of AAV6 to transduce and ablate specific HNSCCs presenting with elevated EGFR expression was assessed by gene-directed enzyme prodrug therapy. Two HNSCC cell lines, HN12 and HEp-2 were selected to represent polarities of EGFR expression.

HN12 cells = assay: AAV transduction and pharmacological inhibition in HN12 cells; assay type: cell-based
Protocol: as §2, §1, §3

Molecule | effect on AAV2 transduction of HEK293T cells (HEK293T cells) | effect on AAV6 transduction of HEp-2 cells (HEp-2 cells; in the presence of AG1478) | effect on AAV2-mediated transduction of HEp-2 cells (HEp-2 cells; presence or absence of AG1478) | reduction of AAV6 transduction of HN12 cells (HN12 cells; in the presence of AG1478 (10 μm), FACS 96 hours) [%] | effect on AAV2-mediated transduction of HN12 cells (HN12 cells; presence or absence of AG1478) | inhibition of AAV6 transduction of HEK293T cells (HEK293T cells; 30 minutes preincubation, AAV6-CMV-eGFP, FACS 48 hours) [%]
COc1cc2ncnc(Nc3ccc(F)c(Cl)c3)c2cc1OCCCN1CCOCC1 [gefitinib] | unchanged |  |  |  |  | 
AG1478 | unchanged | not altered | no significant (NS) difference | 77 | no significant (NS) difference | 50
